Assay results published in article PMC5887109, “Unravelling the Molecular Determinants of Bee Sensitivity to Neonicotinoid Insecticides” (Current Biology, 2018).
One block for each compound: values may come before it.

How the values were obtained:
[1] = test system: CYP9Q5; assay: Activity of recombinant CYP9Q5 against fluorescent coumarin model substrates; format: biochemical, B. terrestris
Description: (§1) The activity of individual A. mellifera and B. terrestris recombinant P450s were tested against seven fluorescent model substrates (all purchased from Sigma); 7-methoxy-coumarin (MC), 7-Methoxy-4-(tri-fluoromethyl)-coumarin (MFC), 7-ethoxy-coumarin (EC), 7-benzyloxy-4-(trifluoromethyl)-coumarin (BFC), 7-ethoxy-4-trifluoro-methylcoumarin (EFC), 7-benzyloxymethoxy-4-trifluoromethyl coumarin (BOMFC), and 7-p-methoxy-benzyloxy-4-trifluoro coumarin (MOBFC). Assays were carried out in black flat-bottomed 96-well plates in a 100 μL reaction containing 2 pmol of P450 per 50 μg of protein (B. terrestris) or 50 μg/well (A. mellifera), 1 mM of NADPH (Sigma) and […] of a model substrate (Sigma). […] Data were recorded using a SpectraMax Gemini XPS (B. terrestris) or a SpectraMax M2 (A. mellifera) at the excitation/emission wavelength suitable for each model substrate (MC, EC at 390-465, BFC, MFC at 410-535, EFC at 410-510 and BOMFC and MOBFC at 405-510 nm). […] The reactions were incubated at 25°C (B. terrestris) or 30°C (A. mellifera) for a further 15 min and the data were recorded at the required excitation/emission wavelengths stated above. […] The florescence was measured as above at the corresponding wavelengths for each model substrate. […] This was then subtracted from the average fluorescence measurement of each P450 along with the average control measurements.

[2] = molecular target: T1, CYP9Q3 (Apis mellifera, UniProt A0A7M7LMV1); assay: Activity of recombinant CYP9Q3 against fluorescent coumarin model substrates; format: biochemical, A. mellifera
T1 sequence (A0A7M7LMV1 entry or part of it, one chain of several): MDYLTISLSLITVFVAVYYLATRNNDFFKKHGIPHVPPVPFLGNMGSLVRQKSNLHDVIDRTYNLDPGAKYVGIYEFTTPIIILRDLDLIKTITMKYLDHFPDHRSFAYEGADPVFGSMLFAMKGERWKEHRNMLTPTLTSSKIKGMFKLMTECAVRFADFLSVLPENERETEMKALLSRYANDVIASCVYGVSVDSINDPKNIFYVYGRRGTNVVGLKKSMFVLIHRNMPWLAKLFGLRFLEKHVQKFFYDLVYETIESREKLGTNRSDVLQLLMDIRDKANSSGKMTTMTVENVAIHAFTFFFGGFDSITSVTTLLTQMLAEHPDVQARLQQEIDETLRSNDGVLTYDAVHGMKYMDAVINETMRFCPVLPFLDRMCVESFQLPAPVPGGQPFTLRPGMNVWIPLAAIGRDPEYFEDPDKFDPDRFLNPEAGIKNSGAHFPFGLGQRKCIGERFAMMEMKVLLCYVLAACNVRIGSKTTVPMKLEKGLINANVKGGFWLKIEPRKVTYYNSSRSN
Description: as §1

[3] = molecular target: T2, CYP9Q1 (Apis mellifera, UniProt A0A7M7GTV9); assay: Activity of recombinant CYP9Q1 against fluorescent coumarin model substrates; format: biochemical, A. mellifera
T2 sequence (A0A7M7GTV9 entry or part of it, one chain of several): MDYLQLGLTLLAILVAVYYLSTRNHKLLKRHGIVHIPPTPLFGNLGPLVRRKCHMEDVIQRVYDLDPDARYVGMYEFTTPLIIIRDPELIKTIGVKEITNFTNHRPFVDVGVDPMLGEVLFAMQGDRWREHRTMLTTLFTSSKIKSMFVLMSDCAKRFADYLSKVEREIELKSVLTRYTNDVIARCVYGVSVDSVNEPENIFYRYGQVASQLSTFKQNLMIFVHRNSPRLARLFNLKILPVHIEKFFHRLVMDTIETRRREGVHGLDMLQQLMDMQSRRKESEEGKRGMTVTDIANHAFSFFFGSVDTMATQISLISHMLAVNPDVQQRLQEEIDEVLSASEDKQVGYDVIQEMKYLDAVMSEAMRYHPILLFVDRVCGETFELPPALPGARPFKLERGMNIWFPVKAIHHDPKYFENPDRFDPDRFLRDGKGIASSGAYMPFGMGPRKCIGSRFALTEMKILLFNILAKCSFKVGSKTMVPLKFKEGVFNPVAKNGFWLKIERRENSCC
Description: as §1

[4] = molecular target: T3, CYP9Q4 (Bombus terrestris, UniProt A0A9B0BBT5); assay: Activity of recombinant CYP9Q4 against fluorescent coumarin model substrates; format: biochemical, B. terrestris
T3 sequence (A0A9B0BBT5 entry or part of it, one chain of several): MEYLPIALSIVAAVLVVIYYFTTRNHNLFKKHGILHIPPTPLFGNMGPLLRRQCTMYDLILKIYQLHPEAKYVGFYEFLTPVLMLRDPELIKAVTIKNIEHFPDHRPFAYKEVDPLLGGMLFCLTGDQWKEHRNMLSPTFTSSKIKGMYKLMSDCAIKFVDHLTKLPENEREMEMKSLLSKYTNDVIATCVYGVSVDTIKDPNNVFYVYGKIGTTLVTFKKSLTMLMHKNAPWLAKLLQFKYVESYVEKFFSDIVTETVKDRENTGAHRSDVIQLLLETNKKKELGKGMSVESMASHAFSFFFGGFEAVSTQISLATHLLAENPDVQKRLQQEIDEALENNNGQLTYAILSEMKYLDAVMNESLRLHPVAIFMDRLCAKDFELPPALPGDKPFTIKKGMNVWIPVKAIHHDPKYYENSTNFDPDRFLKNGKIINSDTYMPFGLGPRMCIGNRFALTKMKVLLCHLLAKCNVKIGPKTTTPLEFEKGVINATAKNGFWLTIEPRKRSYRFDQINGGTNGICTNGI
Description: The activity of individual A. mellifera and B. terrestris recombinant P450s were tested against seven fluorescent model substrates (all purchased from Sigma); 7-methoxy-coumarin (MC), 7-Methoxy-4-(tri-fluoromethyl)-coumarin (MFC), 7-ethoxy-coumarin (EC), 7-benzyloxy-4-(trifluoromethyl)-coumarin (BFC), 7-ethoxy-4-trifluoro-methylcoumarin (EFC), 7-benzyloxymethoxy-4-trifluoromethyl coumarin (BOMFC), and 7-p-methoxy-benzyloxy-4-trifluoro coumarin (MOBFC). Assays were carried out in black flat-bottomed 96-well plates in a 100 μL reaction containing 2 pmol of P450 per 50 μg of protein (B. terrestris) or 50 μg/well (A. mellifera), 1 mM of NADPH (Sigma) and […] of a model substrate (Sigma). Three replicates were carried out for each data point. P450s incubated without NADPH and wells containing only potassium phosphate buffer served as controls. Samples were incubated at 25°C for 45 min (B. terrestris) or 30°C for 30 min (A. mellifera). Data were recorded using a SpectraMax Gemini XPS (B. terrestris) or a SpectraMax M2 (A. mellifera) at the excitation/emission wavelength suitable for each model substrate (MC, EC at 390-465, BFC, MFC at 410-535, EFC at 410-510 and BOMFC and MOBFC at 405-510 nm). As these substrates have a similar emission wavelength to NADPH (460 nm) the reaction was terminated prior to measurement by the addition of 100μL of a stop solution (25% DMSO, 0.05 M Tris/HCL pH10, 5 mM glutathione oxidised, and 0.2 U glutathione reductase). The reactions were incubated at 25°C (B. terrestris) or 30°C (A. mellifera) for a further 15 min and the data were recorded at the required excitation/emission wavelengths stated above. 7-hydroxy-4-(trifluoromethyl)-coumarin (HFC) (Sigma) was used to generate a standard curve for model substrates BFC, EFC, MFC, MOBFC, and BOMFC and 7-hydroxycoumarin (HC) (Sigma) for model substrates EC and MC. […] The florescence was measured as above at the corresponding wavelengths for each model substrate. […] This was then subtracted from the average fluorescence measurement of each P450 along with the average control measurements.

[5] = molecular target: T4, CYP9Q2 (Apis mellifera, UniProt A0A7M7R6F2); assay: in vitro; conditions: hydroxylation (thiacloprid, imidacloprid) or N-desmethylation (acetamiprid)
T4 sequence (A0A7M7R6F2 1-532): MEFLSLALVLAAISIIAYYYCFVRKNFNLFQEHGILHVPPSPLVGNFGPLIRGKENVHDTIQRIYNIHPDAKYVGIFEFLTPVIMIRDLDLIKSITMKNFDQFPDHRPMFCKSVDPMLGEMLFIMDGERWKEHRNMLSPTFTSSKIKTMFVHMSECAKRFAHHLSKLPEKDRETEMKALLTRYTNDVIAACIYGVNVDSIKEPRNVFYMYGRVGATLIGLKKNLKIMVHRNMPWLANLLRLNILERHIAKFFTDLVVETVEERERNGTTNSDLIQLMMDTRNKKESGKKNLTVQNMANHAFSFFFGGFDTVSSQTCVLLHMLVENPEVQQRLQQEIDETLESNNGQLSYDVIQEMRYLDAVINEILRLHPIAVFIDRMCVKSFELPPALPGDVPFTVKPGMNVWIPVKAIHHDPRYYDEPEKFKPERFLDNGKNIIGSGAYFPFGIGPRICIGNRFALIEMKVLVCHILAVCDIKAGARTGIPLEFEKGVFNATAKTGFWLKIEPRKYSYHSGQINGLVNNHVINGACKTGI
T4 sequence (Q07994 1-671 partner): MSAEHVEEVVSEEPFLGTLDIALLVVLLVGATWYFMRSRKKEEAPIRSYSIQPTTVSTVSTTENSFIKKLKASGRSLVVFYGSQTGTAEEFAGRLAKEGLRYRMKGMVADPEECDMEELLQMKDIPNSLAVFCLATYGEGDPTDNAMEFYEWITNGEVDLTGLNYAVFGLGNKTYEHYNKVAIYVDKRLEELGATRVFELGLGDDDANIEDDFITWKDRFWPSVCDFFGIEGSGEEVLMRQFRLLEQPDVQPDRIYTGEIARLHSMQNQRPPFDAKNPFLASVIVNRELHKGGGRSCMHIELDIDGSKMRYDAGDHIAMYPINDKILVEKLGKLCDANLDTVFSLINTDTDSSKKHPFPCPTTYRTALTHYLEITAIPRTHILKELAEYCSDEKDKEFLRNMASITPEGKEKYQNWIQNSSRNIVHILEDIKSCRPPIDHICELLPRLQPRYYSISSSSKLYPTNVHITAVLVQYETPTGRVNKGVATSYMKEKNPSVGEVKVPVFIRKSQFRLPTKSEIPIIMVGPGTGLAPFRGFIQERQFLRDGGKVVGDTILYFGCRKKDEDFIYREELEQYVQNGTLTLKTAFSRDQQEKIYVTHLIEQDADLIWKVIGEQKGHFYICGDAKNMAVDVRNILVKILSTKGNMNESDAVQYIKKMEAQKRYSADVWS
Description: (§2) All bee P450 (see Table S3 for accession numbers) and house fly NADPH-dependent cytochrome P450 reductase (CPR) (GenBank accession number Q07994) genes were obtained by gene synthesis (Geneart, CA, USA) and inserted into the pDEST8 expression vector (Invitrogen). Codon optimization of all bee genes was used to optimize expression in lepidopteran cell lines. The PFastbac1 vector with no inserted DNA was used to produce a control virus. The recombinant baculovirus DNA was constructed and transfected into Trichoplusia ni (High five cells, Thermo Fisher) using the Bac-to-Bac baculovirus expression system (Invitrogen) according to the manufacturer’s instructions. The titer of the recombinant virus was determined following protocols of the supplier. High Five cells grown to a density of 2 × 10^6 cells ml^-1 were co-infected with recombinant baculoviruses containing each bee P450 and CPR with a range of MOI (multiplicity of infection) ratios to identify the optimal conditions. Control cells were co-infected with the baculovirus containing vector with no insert (ctrl-virus) and the recombinant baculovirus expressing CPR using the same MOI ratios. Ferric citrate and δ-aminolevulinic acid hydrochloride were added to a final concentration of 0.1 mM at the time of infection and 24 h after infection to compensate the low levels of endogenous heme in the insect cells. After 48 h, cells were harvested, washed with PBS, and microsomes of the membrane fraction prepared according to standard procedures and stored at −80°C [31]. Briefly, pellets were homogenized for 30 s in 0.1M Na/K-phosphate buffer, pH 7.4 containing 1mM EDTA and DTT and 200mM sucrose using a Fastprep (MP Biomedicals), filtered through miracloth and centrifuging for 10 min at 680 g at 4°C. The supernatant was then centrifuged for 1 h at 100,000 g at 4°C, with the pellet subsequently resuspended in 0.1M Na/K-phosphate buffer, pH 7.6 containing 1mM EDTA and DTT and 10% glycerol using a Dounce tissue grinder. P450 expression and functionality was estimated by measuring CO-difference spectra in reduced samples using a Specord 200 Plus Spectrophotometer (Analytik Jena) and scanning from 500 nm to 400 nm. The protein content of samples was determined using Bradford reagent (Sigma) and bovine serum albumin (BSA) as a reference.
(§3) The total assay volume was 200 μL using three replicates for each data point. Microsomes incubated without NADPH served as a control. The assay was stopped by the addition of ice-cold acetonitrile (to 80% final concentration), centrifuged for 10 min at 3000 g and the supernatant subsequently analyzed by tandem mass spectrometry as described previously. For the chromatography on a Waters Acquity HSS T3 column (2.1x50mm, 1.8μm), acetonitrile/water/0.1% formic acid was used as the eluent in gradient mode. […] The peak integrals were calibrated externally against a standard calibration curve. […] Substrate turnover from two independent reactions were plotted versus controls and Michaelis-Menten kinetics determined using GraphPad Prism version 7 (GraphPad Software, CA, USA).

[6] = molecular target: T2, CYP9Q1; assay: in vitro; conditions: hydroxylation (thiacloprid, imidacloprid) or N-desmethylation (acetamiprid)
Description: as §2, §3

[7] = molecular target: T1, CYP9Q3; assay: in vitro; conditions: hydroxylation (thiacloprid, imidacloprid) or N-desmethylation (acetamiprid)
Description: as §2, §3

[8] = molecular target: T3, CYP9Q4; assay: Metabolism by recombinant CYP9Q4/CPR microsomes, LC-MS/MS; conditions: hydroxylation (thiacloprid) or N-desmethylation (acetamiprid)
Description: as §2
(§4) The total assay volume was 200 μL using three replicates for each data point. […] The assay was stopped by the addition of ice-cold acetonitrile (to 80% final concentration), centrifuged for 10 min at 3000 g and the supernatant subsequently analyzed by tandem mass spectrometry as described previously. […] Substrate turnover from two independent reactions were plotted versus controls and Michaelis-Menten kinetics determined using GraphPad Prism version 7 (GraphPad Software, CA, USA).

[9] = test system: CYP9Q5; assay: Metabolism by recombinant CYP9Q5/CPR microsomes, LC-MS/MS; conditions: hydroxylation (thiacloprid) or N-desmethylation (acetamiprid)
Description: as §2, §4

[10] = test system: honeybee; conditions: cited from earlier work

Compound: O=c1cc(C(F)(F)F)c2ccc(OCc3ccccc3)cc2o1 [BFC, 7-benzyloxy-4-trifluoromethyl coumarin]
activity against fluorescent coumarin model substrate (in words) [1]: no activity
activity against fluorescent coumarin model substrate (in words) [2]: highest specific activity
activity against fluorescent coumarin model substrate (in words) [3]: highest specific activity
activity against fluorescent coumarin model substrate (in words) [4]: no activity

activity against fluorescent coumarin model substrate (in words) [4]: activity
Compound: COc1ccc2c(C(F)(F)F)cc(=O)oc2c1 [MFC, 7-methoxy-4-trifluoromethyl coumarin]

Compound: COc1ccc(COc2ccc3c(C(F)(F)F)cc(=O)oc3c2)cc1 [MOBFC, 7-p-methoxy-benzyloxy-4-trifluoro coumarin]
activity against fluorescent coumarin model substrate (in words) [4]: activity

Compound: C/C(=N\C#N)N(C)Cc1ccc(Cl)nc1 [acetamiprid]
metabolism by the recombinant P450 (in words) [5]: highest activity
metabolism by the recombinant P450 (in words) [6]: capacity to metabolize
metabolism by the recombinant P450 (in words) [7]: highest activity
metabolism by the recombinant P450 (in words) [8]: highest activity
metabolism by the recombinant P450 (in words) [9]: highest activity

Compound: CCCC1COC(Cn2cncn2)(c2ccc(Cl)cc2Cl)O1 (stereo not shown) [propiconazole]
effect of P450 inhibitor on honeybee sensitivity to imidacloprid ([10]; synergist plus imidacloprid): almost no effect
increase of honeybee sensitivity to thiacloprid by P450 inhibitor ([10]; synergist plus thiacloprid): 559 fold
